Key:
HSV-2 (strain 333) = assay: HSV-2 inactivation assay (plaques on CV-1 monolayers); assay type: cell-based, herpes simplex virus; conditions: 37° C. 10 min, virus then diluted 100 fold
Method: HSV-2 (strain 333) virus stocks were propagated by low multiplicity infection of African Green monkey kidney (CV-1) cells and subsequent preparation of cell-free supernatants from frozen and thawed preparations of lytically infected cultures. Virus titers were determined by assay in CV-1 cell monolayers. Virus stocks were maintained in CV-1 cell culture medium which was Dulbecco's medium supplemented with antibiotics and 10% fetal calf serum.
For inactivation of HSV-2, 39 μl of virus was mixed with 1 μl of a 40×concentrated solution of detergent and then incubated at 37° C. for 10 min. After inactivation, the 40 μl of virus sample was diluted to 4 ml (1:100) using cell culture medium, and 1 ml of the diluted virus was adsorbed onto CV-1 monolayers for 1 hr at 37° C. Following adsorption, monolayers were refed and incubated at 37° C., 5% CO2. Between 20 and 24 hr post infection, monolayers were fixed, stained with crystal violet and plaques counted using a dissecting microscope. The numbers in Table 1 each represent an average of 2 plates.

CRPV = assay type: in vivo, cottontail rabbit papillomavirus; conditions: 0.05% SDS
[1] = tested on: split thickness grafts of neonatal foreskin; assay: SDS exposure and viability of human foreskin xenografts; assay type: in vivo; conditions: 0.05% SDS, no virus; immediately and days 1, 5, 11 and 20
Method: A second set of control grafts was exposed only to identical concentrations of SDS and no virus. These grafts were harvested on days 1, 5, 11 and 20 following transplantation in order to follow the viability and growth of the grafts after SDS exposure.
Because of concern about the potential for SDS to kill human epithelium, control experiments were performed in which split thickness grafts of neonatal foreskin were exposed to 0.05% SDS alone and then subsequently grafted. All conditions in this experiment were identical to those used in the HPV 11 infections with treated virus, except that virus was not present. SDS-exposed grafts (2 animals at each time) were harvested, fixed and sectioned immediately after exposure, and on days 1, 5, 11 and 20 after treatment. […] The original split thickness grafts were approximately 1 mm×1 mm×1 mm in size; in addition they were punctured many times with the tip of a needle in order to allow entrance of the HPV 11 and/or the SDS into the epithelial layers. Although it is possible that some epithelial cells may have been damaged or killed during SDS exposure, damage was minimal and epithelial growth in the grafts was normal.

[2] = tested on: lymphocyte-, macrophage- and dual-tropic strains of HIV-1 (IIIB, BaL, 89.6); assay: Cell-free HIV-1 inactivation (FIG. 5); assay type: cell-based, human immunodeficiency virus; conditions: HCLB or P4-R5 indicator cells
Method: Cell-free HIV-1 strain IIIB (A) was treated with N-9, C31G, or SDS, and used to infect HCLB cells. Cell-free HIV-1 strains BaL (M tropic) (B) and 89.6 (dual tropic) (C) were treated with N-9, C31G or SDS,and used to infect P4-R5 cells. Assays were conducted. Infectivity following exposure is expressed as a percentage relative to the number of β-gal-positive cells in duplicate wells infected with virus incubated in the absence of a microbicidal compound. Results shown in FIG. 5 are the average cell counts for a total of four wells per concentration in two independent experiments.

[3] = tested on: HIV-1-infected SupT1 cells; assay: Cell-associated HIV-1 infectivity (FIG. 6); assay type: cell-based, human immunodeficiency virus; conditions: 10 min at 37° C., co-culture with HCLB cells, FIG. 6(a)
Method: (A) SupT1 T lymphocytes (8×10^4)infected 5 days prior with HIV-1 strain IIIB were pelleted and resuspended in new media to remove cell-free virus. After exposure to selected concentrations of each microbicide for 10 min at 37° C., the cells were diluted 1:10 and co-cultured with HCLB cells for 2 h. Following one wash with PBS to remove the infected lymphocytes, the indicator cells were cultured and assayed. Infectivity following exposure is expressed as a percentage relative to the number of β-gal-positive cells in duplicate wells infected with HIV-1 infected SupT1 cells incubated in the absence of a microbicidal compound. Results shown in FIG. 6(a) are the average cell counts for a total of four wells per concentration in two independent experiments. (B) SupT1 T lymphocytes (8×10^4) were incubated with selected concentrations of each microbicide for 10 min at 37° C., and then diluted 1:10 with new media. Following a 2 h incubation period, the cells were assessed for viability. Cell survival after treatment is expressed as the fraction of viable cells relative to the number of mock-exposed cells. Results shown in FIG. 6(b) are the average of two experiments in which triplicate wells for each concentration were assayed.

HSV-2 = assay: Protection of mice from vaginal infection with live HSV-2; assay type: in vivo, herpes simplex virus; conditions: Swiss-Webster mice
Method: The following data represent an in vivo experiment to test both the toxicity and the efficacy of SDS in the protection of mice from vaginal infection with live herpes simplex virus (HSV-2).
The experiment used outbred, female, Swiss-Webster mice. Mice were anesthetized and then SDS or control solutions (25μl ) was instilled into the vagina using a yellow pipette tip. The SDS was not formulated into a vaginal cream or foam but merely dissolved into phosphate buffered saline. These solutions have low viscosity. Fluids were instilled into groups of 10 mice at one time. Following administration of SDS or control solutions to the group of 10, then an additional 25 μof virus or control fluid was instilled. Mice were allowed to recover from the anesthesia and then the mice were checked daily for symptoms, beginning on day three and until 12 days after inoculation. Vaginal swabs were also performed on the mice on a daily basis, beginning on day three, in order to determine shedding of virus. FIGS. 3A-3G show the total symptoms per group on days 3 through 12 for each of the following symptoms: swelling, vaginal exudate, redness, death, leg paralysis, perianal hair loss and any symptom.

CCCCCCCCCCCCOS(=O)(=O)[O-].[Na+] [SDS, Sodium dodecyl sulfate]
Plaques/Plate (5 experiments) (HSV-2 (strain 333); 1 × 10^−1 % SDS during treatment): 0/0/0/0/0 | Plaques/Plate (5 experiments) (HSV-2 (strain 333); 1.25 × 10^−2 % SDS during treatment): 0/0/0/0/0 | Plaques/Plate (5 experiments) (HSV-2 (strain 333); 2.5 × 10^−2 % SDS during treatment): 0/0/0/0/0 | Plaques/Plate (5 experiments) (HSV-2 (strain 333); 2.5 × 10^−3 % SDS during treatment): 28/54/322/145/104 | Plaques/Plate (5 experiments) (HSV-2 (strain 333); 5 × 10^−2 % SDS during treatment): 0/0/0/0/0 | development of papillomas at the six sites that received SDS treated preparations (FIG. 1b) (CRPV; 10^−1 dilution of virus stock, 10 min, 37° C., rabbits): delayed in the development of papillomas | inactivation of CRPV (GMD of lesions, FIG. 1a) (CRPV; 10^−1 dilution of virus stock, 10 min, 37° C., rabbits, days 18-50): substantially inactivated | sites inoculated with treated virus in which papillomas failed to develop (CRPV; 10^−2 dilution of CRPV stock, 37° C. 10 min, five rabbits, 3-6 weeks): 8 of 10 | viability of grafts exposed to SDS alone (histology) [1]: fully viable epithelium on all days and no apparent necrosis | inactivation of cell-free HIV-1 strains IIIB, BaL and 89.6 (infectivity, β-gal-positive cells) [2]: inactivated | cell-associated infectivity of HIV-1-infected SupT1 cells [3]: can reduce the cell-associated infectivity | protection from HSV-2 inoculation of the vagina, dose response (HSV-2; 4% SDS): most protection | protection from HSV-2 inoculation of the vagina (symptoms days 3-12) (HSV-2; all concentrations of SDS (0.5%, 1%, 2%, 4%) in PBS, 25 μl intravaginal): significant protection
